Molecules are shown by their SMILES.

This experiment addresses human salt-induced kinase 3 (SIK3) (Homo sapiens, UniProt Q9Y2K2). The experiment in a line: KinaseProfiler radiometric protein kinase assay (Eurofins), ATP at Km. It is filed as biochemical.

Sequence of human salt-induced kinase 3 (SIK3) (Q9Y2K2 whole entry): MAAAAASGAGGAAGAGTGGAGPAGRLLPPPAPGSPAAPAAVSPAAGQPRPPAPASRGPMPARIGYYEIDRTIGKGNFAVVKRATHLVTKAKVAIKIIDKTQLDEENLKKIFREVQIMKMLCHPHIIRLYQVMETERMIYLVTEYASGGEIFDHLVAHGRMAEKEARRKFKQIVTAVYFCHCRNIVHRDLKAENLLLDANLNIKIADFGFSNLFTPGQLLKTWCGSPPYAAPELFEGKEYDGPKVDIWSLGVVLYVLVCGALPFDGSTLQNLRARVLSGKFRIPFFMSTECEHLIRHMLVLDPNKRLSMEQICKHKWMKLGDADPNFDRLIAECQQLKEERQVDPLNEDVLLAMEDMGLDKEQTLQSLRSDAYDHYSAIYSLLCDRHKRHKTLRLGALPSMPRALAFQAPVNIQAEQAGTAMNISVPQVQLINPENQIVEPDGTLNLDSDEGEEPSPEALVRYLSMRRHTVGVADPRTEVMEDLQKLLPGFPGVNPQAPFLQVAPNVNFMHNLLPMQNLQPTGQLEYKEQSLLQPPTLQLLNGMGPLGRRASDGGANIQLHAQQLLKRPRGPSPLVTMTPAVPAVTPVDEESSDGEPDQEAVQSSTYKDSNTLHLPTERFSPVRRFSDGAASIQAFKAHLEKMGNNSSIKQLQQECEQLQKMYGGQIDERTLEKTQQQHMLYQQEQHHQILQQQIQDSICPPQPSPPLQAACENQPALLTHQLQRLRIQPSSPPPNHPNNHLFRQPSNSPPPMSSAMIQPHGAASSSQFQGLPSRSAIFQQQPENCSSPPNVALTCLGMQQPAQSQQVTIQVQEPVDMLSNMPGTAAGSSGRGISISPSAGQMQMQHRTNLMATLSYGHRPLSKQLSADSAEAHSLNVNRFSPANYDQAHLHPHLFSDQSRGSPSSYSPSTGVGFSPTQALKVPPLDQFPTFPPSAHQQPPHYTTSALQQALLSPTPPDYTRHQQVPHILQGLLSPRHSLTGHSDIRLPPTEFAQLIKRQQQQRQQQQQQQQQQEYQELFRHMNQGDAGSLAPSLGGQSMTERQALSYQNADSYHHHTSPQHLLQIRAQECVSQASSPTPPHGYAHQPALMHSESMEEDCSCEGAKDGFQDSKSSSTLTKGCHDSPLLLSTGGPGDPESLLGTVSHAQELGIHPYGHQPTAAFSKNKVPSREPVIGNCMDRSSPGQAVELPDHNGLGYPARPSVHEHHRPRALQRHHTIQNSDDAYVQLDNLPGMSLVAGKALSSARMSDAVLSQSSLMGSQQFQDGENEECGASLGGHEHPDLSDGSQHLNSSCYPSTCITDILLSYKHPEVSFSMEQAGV

For orientation: IC50 means the concentration that gives 50% inhibition. On to `COc1cc(/C=C/C(=O)CC(=O)/C=C/c2ccc(O)c(OC)c2)ccc1O` [curcumin], for which the IC50 amounted to 131 nM.

Source of the values: article PMC10133576, “Interactions between curcumin and human salt-induced kinase 3 elucidated from computational tools and experimental methods” (Frontiers in Pharmacology, 2023).
